# From patent publication US20240365782A1, “USE OF 2-AMINO-3-METHYLHEXANOIC ACID IN PROMOTING PLANT GROWTH AND INCREASING YIELD” (NANJING AGRICULTURAL UNIVERSITY, priority 2021, published 2024)
# Assays:
# [1] = test system: rice seedlings; assay: Soaking seeds: effect on growth of rice seedlings; assay type: in vivo; details: for Chlorophyll content: rice leaves; for Chlorophyll content improved compared with the blank control / Plant height improved compared with the blank control / Root fresh weight / Root fresh weight improved compared with the blank control / Root length / Root length improved compared with the blank control / Plant height: rice seedlings; for Plant height: 3 leaves and 1 heart stage
# Procedure: Rice seeds (variety “Dengliangyou 2108”) were washed clean with distilled water, disinfected with 75% alcohol for 3 minutes, washed with the distilled water for 3 times, and then disinfected with NaClO (5%) for about 10 minutes, taken out, and washed with the distilled water. Residual water on the surfaces of the seeds was absorbed with clean filter paper until the surfaces were dry and clean. 50 g of the healthy, full and uniform seeds were picked and placed in 100-mL conical flasks. 50 mL of a 2-amino-3-methylhexanoic acid aqueous solution with the concentrations of 0 nM, 10 nM, 100 nM and 1,000 nM was added into each bottle respectively, the seeds were soaked for 5 days at room temperature and taken out, 100 rice seeds to be tested with a consistent germination state were respectively selected, uniformly sowed in a rice seedling tray, and covered with sterile nutrient soil, the seedling tray was placed in a culture room at 28° C., and when 3 leaves and 1 heart of the rice seedlings were grown, the plant height, the root length, the root fresh weight and the overground part fresh weight of the rice seedlings were respectively measured.
# (§1) 0.1 g of the rice leaves were accurately cut off for measuring the chlorophyll content. The rice leaves were extracted with 10 mL of an acetone ethanol extracting solution (80% acetone: 95% ethanol at a volume ratio of 1:1) for 24 hours in a dark place. A chlorophyll extracting stock solution was diluted by 3 times with the extracting solution as a reference solution, the light density values at wave lengths of 645 nm and 663 nm were measured with a spectrophotometer, and the chlorophyll content was calculated with a modifier formula of an Amnon method.
# In the formula, Ch1a, Ch1b and Ch1t are the concentrations (mg/g·FW) of chlorophyll a, chlorophyll b and total chlorophyll, respectively; n is the dilution ratio; v is the volume of the extracting solution (L); m is the mass (g) of the leaves; and A663 and A645 are absorbance values of 663 nm and 645 nm, respectively.
# [2] = test system: cucumber seedlings; assay: Hydroponic treatment: rooting of radicle-removed cucumber seedlings; assay type: in vivo; details: for Lateral root number / Root length: cucumber seedlings, 6 days
# Excerpt: To further investigate a promoting effect of 2-amino-3-methylhexanoic acid on growth of plant roots, a model system for studying root generation, a radicle-removed cucumber seedling system, was selected. Four layers of wet gauze were spread on a bottom part of a seedling box, and healthy, full and uniform cucumber seeds (variety “Chuxiaqiuguan”, Ningyang County Luming Seed Co., Ltd., Shandong Province) were picked, washed with distilled water, uniformly spread on the gauze, and then covered with four layers of the wet gauze for keeping in a dark place. After kept in a dark place in a 25° C. culture room for 24 hours, the germinated cucumber seeds were taken out and buried in a position 1 cm below the soil, a plurality of plants with consistent growth vigor and completely unfolded two cotyledons were taken after 3 days, the roots were washed with the distilled water, the radicles were cut off, and the plants were fixed with sponge strips and placed in a centrifuge tube box. 400 mL of a 2-amino-3-methylhexanoic acid aqueous solution at concentrations of 0, 10, 100, and 1,000 nM, respectively was added to each box. The hydroponic plants were placed in the 25° C. culture room. After 6 days of light culture, the plants were taken out and the root length and number of newly generated roots were measured and recorded.
# [3] = test system: strawberry seedlings; assay: Stem and leaf treatment: growth of strawberry seedlings; assay type: in vivo
# Procedure: (§2) In 2021, an experiment was conducted in a Changshanxiang Mingyang family farm (standard greenhouse nursery base) in Zhangjiagang city, Jiangsu province. A strawberry variety to be tested was Hongyan, a tomato variety was Qianxi, and a hot pepper variety was Sujiao No. 5. 2-amino-3-methylhexanoic acid was taken, dissolved with distilled water, and diluted with the distilled water to obtain a solution of 100 nM (14.5 μg/L), a blank control was additionally set, and 0.02% Tween 20 as a surfactant and 14-hydroxylated brassinosteroid (Sichuan New Sun company) with the concentration of 37.5 μg/L as a control agent were added at the same time. Each treatment was repeated three times, the plot area was 20 m^2, and the liquid injection volume per plot was 1 L. The treatment method was foliage spray, an investigation was conducted on day 9 after the application, and the results were shown in Tables 3-5 and FIG. 3-FIG. 5.
# [4] = test system: tomato seedlings; assay: Stem and leaf treatment: growth of tomato seedlings; assay type: in vivo
# Procedure: as §2
# [5] = test system: hot pepper seedlings; assay: Stem and leaf treatment: growth of hot pepper seedlings; assay type: in vivo
# Procedure: as §2
# [6] = test system: strawberry plants; assay: Stem and leaf treatment: growth and yield of mature strawberry plants (field application); assay type: in vivo; details: for Leaf number / Leaf width / Plant height: mature strawberry plants; for Mass of fruits per plant / Number of fruits per plant: strawberries; for Chlorophyll content: strawberry leaves
# Procedure: as §1
# On Feb. 27, 2021, an experiment was conducted in a greenhouse of a farm of Baitu town, Jurong city, Jiangsu province, and the strawberry variety to be tested was Hongyan. The 2-amino-3-methylhexanoic acid was taken, dissolved with distilled water, and gradiently diluted with the distilled water to obtain solutions of 1,000 nM and 100 nM, a blank control was additionally set, and 0.02% Tween 20 as a surfactant was added at the same time. Each treatment was repeated three times, the plot area was 100 m^2, and the liquid injection volume per plot was 4.5 L. Three times of field application were conducted on February 27, March 3, and Mar. 8, 2021, respectively. The treatment method was foliage spray. The plant height, the leaf number, the leaf width, the number of fruits per plant, and the mass of fruits per plant were investigated on March 8. 0.2 g of strawberry leaves were cut off at the same time for measuring the chlorophyll content.
# [7] = test system: Bacillus subtilis; details: cited from earlier work
# [8] = test system: Escherichia coli K-12; details: cited from earlier work
# [9] = test system: Achromobacter butyri; details: cited from earlier work
# [10] = test system: A. ureafaciens; details: cited from earlier work
# [11] = test system: E. coli B; details: cited from earlier work
# [12] = test system: Pseudomonas aeruginosa; details: cited from earlier work
# [13] = test system: Aerobacter aerogenes; details: cited from earlier work
# [14] = test system: Brevibacterium helvolum; details: cited from earlier work
# [15] = test system: P. fluorescens; details: cited from earlier work
# [16] = test system: S. marcescens; details: cited from earlier work
# [17] = foliage spray, day 9, 2-amino-3-methylhexanoic acid 100 nM, 14-hydroxylated brassinosteroid 37.5 μg/L
# [18] = foliage spray, day 9, 2-amino-3-methylhexanoic acid 14.5 μg/L (100 nM), 14-hydroxylated brassinosteroid 37.5 μg/L
# [19] = mature strawberry plants, 1,000 nM
smiles,measurement,setting,value
CCCC(C)C(N)C(=O)O (stereo not shown) [2-amino-3-methylhexanoic acid],Chlorophyll content,[1]; seed soaking 10 nM,3.60 ± 0.055b mg/g · FW
same,Chlorophyll content,[1]; seed soaking 100 nM,3.82 ± 0.079a mg/g · FW
same,Chlorophyll content,"[1]; seed soaking 1,000 nM",3.63 ± 0.013b mg/g · FW
same,Chlorophyll content improved compared with the blank control,[1]; seed soaking 10 nM,31%
same,Plant height improved compared with the blank control,[1]; seed soaking 10 nM,9%
same,Root fresh weight,[1]; seed soaking 10 nM,0.039 ± 0.002c g
same,Root fresh weight improved compared with the blank control,[1]; seed soaking 10 nM,18%
same,Root length,[1]; seed soaking 10 nM,8.34 ± 0.53b cm
same,Root length improved compared with the blank control,[1]; seed soaking 10 nM,14%
same,Plant height,[1]; seed soaking 10 nM,25.24 ± 0.82b cm
same,Chlorophyll content improved compared with the blank control,[1]; seed soaking 100 nM,39%
same,Plant height improved compared with the blank control,[1]; seed soaking 100 nM,29%
same,Root fresh weight,[1]; seed soaking 100 nM,0.069 ± 0.007a g
same,Root fresh weight improved compared with the blank control,[1]; seed soaking 100 nM,109%
same,Root length,[1]; seed soaking 100 nM,9.30 ± 0.26a cm
same,Root length improved compared with the blank control,[1]; seed soaking 100 nM,27%
same,Plant height,[1]; seed soaking 100 nM,29.88 ± 0.16a cm
same,Chlorophyll content improved compared with the blank control,"[1]; seed soaking 1,000 nM",32%
same,Plant height improved compared with the blank control,"[1]; seed soaking 1,000 nM",13%
same,Root fresh weight,"[1]; seed soaking 1,000 nM",0.052 ± 0.003b g
same,Root fresh weight improved compared with the blank control,"[1]; seed soaking 1,000 nM",58%
same,Root length,"[1]; seed soaking 1,000 nM",8.30 ± 0.17b cm
same,Root length improved compared with the blank control,"[1]; seed soaking 1,000 nM",14%
same,Plant height,"[1]; seed soaking 1,000 nM",26.20 ± 0.32b cm
same,Lateral root number,[2]; hydroponic 10 nM,16.00 ± 1.73a piece
same,Root length,[2]; hydroponic 10 nM,2.04 ± 0.67b cm
same,Lateral root number,[2]; hydroponic 100 nM,19.33 ± 1.53a piece
same,Root length,[2]; hydroponic 100 nM,5.36 ± 0.82a cm
same,Lateral root number,"[2]; hydroponic 1,000 nM",14.33 ± 5.13a piece
same,Root length,"[2]; hydroponic 1,000 nM",4.50 ± 1.28a cm
same,Cucumber root length improved compared with the blank control,[2]; hydroponic 10 nM,33%
same,Number of root generation improved compared with the blank control,[2]; hydroponic 10 nM,182%
same,Cucumber root length improved compared with the blank control,[2]; hydroponic 100 nM,199%
same,Number of root generation (lateral root number) improved compared with the blank control,[2]; hydroponic 100 nM,241%
same,Cucumber root length improved compared with the blank control,"[2]; hydroponic 1,000 nM",154%
same,Number of root generation improved compared with the blank control,"[2]; hydroponic 1,000 nM",153%
same,Plant height improved compared with 14-hydroxylated brassinosteroid 37.5 μg/L,[3]; 14.5 μg/L,7%
same,Plant height improved compared with the blank control,[3]; 14.5 μg/L,31%
same,Root fresh weight improved compared with 14-hydroxylated brassinosteroid 37.5 μg/L,[3]; 14.5 μg/L,65%
same,Root fresh weight improved compared with the blank control,[3]; 14.5 μg/L,70%
same,Root length improved compared with 14-hydroxylated brassinosteroid 37.5 μg/L,[3]; 14.5 μg/L,24%
same,Root length improved compared with the blank control,[3]; 14.5 μg/L,23%
same,Plant height,[3]; [17],7.00 ± 0.37a cm
same,Root fresh weight,[3]; [17],8.49 ± 0.12a g
same,Root length,[3]; [17],5.79 ± 0.36a cm
same,Plant height improved compared with 14-hydroxylated brassinosteroid 37.5 μg/L,[4]; 14.5 μg/L,76%
same,Plant height improved compared with the blank control,[4]; 14.5 μg/L,84%
same,Root fresh weight improved compared with 14-hydroxylated brassinosteroid 37.5 μg/L,[4]; 14.5 μg/L,16%
same,Root fresh weight improved compared with the blank control,[4]; 14.5 μg/L,232%
same,Root length improved compared with 14-hydroxylated brassinosteroid 37.5 μg/L,[4]; 14.5 μg/L,18%
same,Root length improved compared with the blank control,[4]; 14.5 μg/L,38%
same,Plant height,[4]; [18],20.80 ± 0.21a cm
same,Root fresh weight,[4]; [18],4.05 ± 0.07a g
same,Root length,[4]; [18],5.39 ± 0.43a cm
same,Plant height improved compared with 14-hydroxylated brassinosteroid 37.5 μg/L,[5]; 14.5 μg/L,37%
same,Plant height improved compared with the blank control,[5]; 14.5 μg/L,60%
same,Root fresh weight improved compared with 14-hydroxylated brassinosteroid 37.5 μg/L,[5]; 14.5 μg/L,35%
same,Root fresh weight improved compared with the blank control,[5]; 14.5 μg/L,49%
same,Root length improved compared with 14-hydroxylated brassinosteroid 37.5 μg/L,[5]; 14.5 μg/L,7%
same,Root length improved compared with the blank control,[5]; 14.5 μg/L,46%
same,Plant height,[5]; [18],9.32 ± 0.32a cm
same,Root fresh weight,[5]; [18],4.67 ± 0.09a g
same,Root length,[5]; [18],4.53 ± 0.33a cm
same,Chlorophyll content improved compared with the blank control,[6]; [19],21%
same,Leaf number improved compared with the blank control,[6]; [19],79%
same,Leaf width improved compared with the blank control,[6]; [19],32%
same,Plant height improved compared with the blank control,[6]; [19],49%
same,Leaf number,[6]; foliage spray 100 nM,22.44 ± 4.32b leaf
same,Leaf width,[6]; foliage spray 100 nM,5.33 ± 0.48b cm
same,Plant height,[6]; foliage spray 100 nM,26.50 ± 3.60b cm
same,Leaf number,"[6]; foliage spray 1,000 nM",26.00 ± 4.76a leaf
same,Leaf width,"[6]; foliage spray 1,000 nM",6.59 ± 1.07a cm
same,Plant height,"[6]; foliage spray 1,000 nM",36.60 ± 3.28a cm
same,Mass of fruits per plant,[6]; foliage spray 100 nM,29.06 ± 0.76b g
same,Number of fruits per plant,[6]; foliage spray 100 nM,8.32 ± 0.47b fruit
same,Mass of fruits per plant,"[6]; foliage spray 1,000 nM",34.47 ± 0.58a g
same,Number of fruits per plant,"[6]; foliage spray 1,000 nM",9.72 ± 0.43a fruit
same,Chlorophyll content,[6]; foliage spray 100 nM,3.50 ± 0.30ab mg/g · FW
same,Chlorophyll content,"[6]; foliage spray 1,000 nM",3.74 ± 0.65a mg/g · FW
same,Mass of fruits per plant improved compared to the blank control,"[6]; strawberry plants, 1,000 nM",44%
same,Number of fruits per plant improved compared to the blank control,"[6]; strawberry plants, 1,000 nM",39%
same,Inhibitory effect,[7],remarkable inhibitory effect
same,Inhibitory effect,[8],remarkable inhibitory effect
same,Inhibitory effect,[9],slight inhibitory effect
same,Inhibitory effect,[10],slight inhibitory effect
same,Inhibitory effect,[11],slight inhibitory effect
same,Inhibitory effect,[12],slight inhibitory effect
same,Inhibitory effect,[13],no inhibitory effect
same,Inhibitory effect,[14],no inhibitory effect
same,Inhibitory effect,[15],no inhibitory effect
same,Inhibitory effect,[16],no inhibitory effect
